The text below walks through data of US20050054692A1, “Azanthranylalkyl and -cycloalkyl amides and their use as VEGF receptor inhibitors” (priority 2000, published 2005).

pIC50: −log10 of the molar value.

The target of one series is VEGFR II (KDR kinase) (Homo sapiens, UniProt P35968). The series is described as follows: Inhibition of KDR kinase activity (33P-ATP, poly-(Glu4Tyr) filter assay). It counts as biochemical. Particulars: 10 minutes at room temperature; poly-(Glu4Tyr) substrate. As to the method: Solutions Required for the Tests
Chain of VEGFR II (KDR kinase) (P35968 20-1356): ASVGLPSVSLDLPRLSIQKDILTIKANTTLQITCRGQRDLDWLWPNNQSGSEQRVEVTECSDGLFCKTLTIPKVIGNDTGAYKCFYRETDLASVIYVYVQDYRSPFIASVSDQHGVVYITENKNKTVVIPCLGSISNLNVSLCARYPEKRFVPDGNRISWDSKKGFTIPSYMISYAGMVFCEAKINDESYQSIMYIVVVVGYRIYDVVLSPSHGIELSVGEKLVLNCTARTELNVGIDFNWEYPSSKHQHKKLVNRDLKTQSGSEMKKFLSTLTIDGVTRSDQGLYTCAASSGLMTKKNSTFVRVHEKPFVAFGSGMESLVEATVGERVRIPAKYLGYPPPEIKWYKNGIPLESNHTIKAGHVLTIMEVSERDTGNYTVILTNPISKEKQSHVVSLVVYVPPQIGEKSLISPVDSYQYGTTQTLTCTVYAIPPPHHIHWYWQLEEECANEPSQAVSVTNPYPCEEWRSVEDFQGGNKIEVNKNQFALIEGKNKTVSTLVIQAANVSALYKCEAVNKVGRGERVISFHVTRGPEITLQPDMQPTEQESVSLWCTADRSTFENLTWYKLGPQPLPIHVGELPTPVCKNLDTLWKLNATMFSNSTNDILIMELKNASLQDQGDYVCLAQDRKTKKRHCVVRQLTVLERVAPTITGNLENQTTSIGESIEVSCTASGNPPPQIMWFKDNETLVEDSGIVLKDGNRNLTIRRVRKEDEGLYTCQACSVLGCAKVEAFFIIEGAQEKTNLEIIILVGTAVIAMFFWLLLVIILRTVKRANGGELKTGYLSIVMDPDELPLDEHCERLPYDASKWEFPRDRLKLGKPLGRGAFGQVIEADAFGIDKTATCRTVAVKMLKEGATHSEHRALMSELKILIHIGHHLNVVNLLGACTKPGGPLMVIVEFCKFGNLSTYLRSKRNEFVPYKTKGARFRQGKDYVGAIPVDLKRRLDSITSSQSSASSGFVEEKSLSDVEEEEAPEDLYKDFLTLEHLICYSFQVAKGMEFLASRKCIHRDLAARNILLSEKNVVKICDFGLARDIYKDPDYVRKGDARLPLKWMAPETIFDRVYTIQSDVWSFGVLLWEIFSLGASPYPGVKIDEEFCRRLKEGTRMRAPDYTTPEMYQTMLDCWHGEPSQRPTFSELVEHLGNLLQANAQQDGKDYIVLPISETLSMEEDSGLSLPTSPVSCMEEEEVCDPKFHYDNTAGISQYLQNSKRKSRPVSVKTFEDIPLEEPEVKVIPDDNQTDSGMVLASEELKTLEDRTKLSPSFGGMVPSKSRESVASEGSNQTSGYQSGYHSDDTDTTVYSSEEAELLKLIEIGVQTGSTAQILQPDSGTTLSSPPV
Stock solution A: 3mM ATP in water pH 7.0 (−70° C.)
Stock solution B: g-33P-ATP 1 mCi/100 μl
Stock solution C: poly-(Glu4Tyr) 10 mg/ml in water
Substrate solvent: 10 mM DTT, 10 mM manganese chloride 100 mM magnesium chloride
Enzyme solution: 120 mM Tris/HCl, pH 7,5,10 μM sodium vanadium oxide
Inhibition of KDR- and FLT-1 kinase activity in the presence of the compounds according to the invention
10 μl of substrate mix [10 μl vol ATP stock solution A+25 μCi g-33P-ATP (ca. 2.5 μl of stock solution B)+30 μl poly-(Glu4Tyr) stock solution C+1.21 ml substrate solvent], 10 μl inhibitor solution [substances corresponding to the dilutions, as a control 3% DMSO in substrate solvent] and 10 μl enzyme solution [11.25 μg enzyme stock solution (KDR or FLT-1 kinase) are diluted at 4° C. in 1.25 ml enzyme solution], are added to a tapering microtitre plate (without protein binding). The mixture is mixed thoroughly and incubated for 10 minutes at room temperature. Subsequently, 10 μl of stop solution (250 mM EDTA, pH 7.0) is added, mixed and 10 μl of the solution transferred to a P 81 phosphocellulose filter. It is subsequently washed several times in 0.1 M phosphoric acid. The filter paper is dried, coated with MeltiLex and measured in a MicroBeta counter.
The IC50 values are determined from the concentration of inhibitor required to inhibit the phosphate incorporation to 50% of the uninhibited incorporation after deducting the reference value (EDTA-stopped reaction).

At VEGFR II (KDR kinase), `CC(C)(C)CCNC(=O)c1ccccc1NCc1ccncc1` [Example 1.19] showed a pIC50 of 7.30.
`O=C(NCCN1CCCCC1)c1ccccc1NCc1ccncc1` [Example 1.27] displayed a melting point of 65.2 °C. Further, the pIC50 against VEGFR II (KDR kinase) is 6.00.
At VEGFR II (KDR kinase), `CC(C)CC(C)NC(=O)c1ccccc1NCc1ccncc1` (stereo not drawn) [Example 1.23] gave a pIC50 of 6.30.
The same measure, in the same setting: the figure for `CCCCCCCCCCNC(=O)c1ccccc1NCc1ccncc1` [Example 1.14] is 6.70.
Regarding `O=C(NC1CCCCCCC1)c1ccccc1NCc1ccncc1` [Example 1.4], the melting point was in the range of 103 to 104 °C. Also, on VEGFR II (KDR kinase), the negative logarithm of the IC50 (pIC50) is 7.10.
For `CC(C)(C)[C@H]1CC[C@H](NC(=O)c2ccccc2NCc2ccncc2)CC1` [Example 1.8] the same measures were 118.4 °C and 7.41.
